PubChem BioAssay (NCI)
“And” between values parts separate entries of the source, which are not always exact repeats. Identical values can stand only once.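 A five-concentration, 48-hour dose response in 96-well plates underlies each endpoint, interpolated linearly between surrounding concentrations. Abbreviation: GI50, concentration required for 50% inhibition of growth. At the TGI there is no net growth.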

Columns and labels:
Assay in all cases: NCI tumour cell line growth inhibition, 48 h
[1] = system: EKVX NSCLC
[2] = system: HT29 colon
[3] = system: NCI-H460 lung
[4] = system: OVCAR-4 ovarian
[5] = system: OVCAR-8 ovarian
[6] = system: RXF 393 renal
[7] = system: SF-539 CNS
[8] = system: SR leukemia
[9] = system: TK-10 renal
[10] = system: SK-MEL-2 melanoma

Row | Compound | TGI [1] | TGI [2] | TGI [3] | TGI [4] | TGI [5] | TGI [6] | TGI [7] | TGI [8] | TGI [9] | TGI [10] | GI50 [2] | GI50 [3] | GI50 [4] | GI50 [5] | GI50 [6] | GI50 [7] | GI50 [10] | GI50 [8] | GI50 [9] | GI50 [1]
1 | CC1(C)COC2C(N(Cc3ccccc3)Cc3ccccc3)C(=O)N21 (configuration not stated) | > 100 µM | > 100 µM | > 100 µM | > 100 µM | > 100 µM | 42.5 µM | 69.8 µM | 54.7 µM | > 100 µM |  |  |  |  |  |  |  |  |  |  | 
2 | CCC1=CCN(c2cc(C)ccn2)OC1c1ccccc1 (configuration not stated) | > 100 µM | > 100 µM | > 100 µM | > 100 µM | > 100 µM | 68 µM | > 100 µM | 55.7 µM |  | 43.7 µM |  |  |  |  |  |  |  |  |  | 
3 | COc1ccc(-c2nc(-c3nc4cc(Cl)c(F)cc4[nH]3)c3ccccn23)cc1 |  | > 100 µM | > 100 µM | > 100 µM | > 100 µM | > 100 µM | > 100 µM | > 100 µM | > 100 µM | 80 µM | 4.26 µM | 5.43 µM | 7930 nM | 3.45 µM | 4650 nM | 39800 nM | 6860 nM | 3870 nM | 5.25 µM | 
4 | COc1cc2c(c3c1c(=O)c1ccccc1n3C)C=CC(C)(C)O2 |  | > 100 µM | > 100 µM | > 100 µM | > 100 µM | 89 µM | > 100 µM | 39.5 µM | > 100 µM | > 100 µM |  |  |  |  |  |  |  |  |  | 
5 | COc1ccc(Nc2nc(Nc3cc(C)[nH]n3)c3cc(OC)c(OC)cc3n2)cc1 | 2.94 µM |  | 2.09 µM | 2.22 µM |  | 2.83 µM | 2.39 µM | > 100 µM |  | 3.56 µM |  | 0.569 µM | 789 nM |  | 1490 nM | 1100 nM | 1770 nM | 386 nM |  | 1480 nM
6 | CO[C@H]1/C=C/O[C@@]2(C)Oc3c(C)c(O)c4c(O)c(c(/C=N/N5CCN(C)CC5)c(O)c4c3C2=O)NC(=O)/C(C)=C\C=C\[C@H](C)[C@H](O)[C@@H](C)[C@@H](O)[C@@H](C)[C@H](OC(C)=O)[C@@H]1C | > 100 µM | > 100 µM | > 100 µM |  | > 100 µM | > 100 µM |  | 52.6 µM | > 100 µM | > 100 µM |  |  |  |  |  |  |  |  |  | 
7 | C=C1C(=O)O[C@H]2[C@H]1CC/C(COC(=O)NCc1ccc(Cn3c(=O)sn(CCCCC)c3=O)cc1)=C\CC[C@@]1(C)O[C@@H]21 | 5.59 µM | 3.89 µM | 12.5 µM | 3.3 µM | 5.46 µM |  | 3.2 µM | 2.18 µM | 3.66 µM | 5.46 µM | 2.09 µM | 3.42 µM | 1620 nM | 2.26 µM |  | 1640 nM | 2410 nM | 300 nM | 1.96 µM | 1850 nM
8 | O=c1cc(-c2ccccc2)[nH]c2cc(F)cc(F)c12 |  | > 100 µM | > 100 µM | > 100 µM | > 100 µM | 81.7 µM | 85.5 µM | > 100 µM | > 100 µM | 84.4 µM |  |  |  |  |  |  |  |  |  | 
9 | COc1cc(C2=NN(C(C)=O)C(c3cc(OC)c(OC)c(OC)c3)C2)ccc1O (configuration not stated) | > 100 µM | > 100 µM | > 40.8 µM | > 100 µM | > 100 µM |  | 1.54 µM |  | > 100 µM | > 100 µM | 0.358 µM | 0.346 µM | 532 nM | 0.619 µM |  | 271 nM |  | 98.5 nM | 0.723 µM | 1130 nM
10 | COc1ccc(-c2cnnn2-c2nonc2-n2cccc2)cc1OC |  | > 100 µM | > 100 µM | > 100 µM | > 100 µM | 40.2 µM | 22.2 µM | > 100 µM | > 100 µM |  | 3.31 µM | 3.75 µM | 18600 nM | 5.29 µM | 2980 nM | 3440 nM |  | 1900 nM | 22.6 µM | 
11 | Nc1c(C(=O)c2cccc(C#CCN3CCCCC3)c2)cnn1-c1ccc(F)cc1 |  | > 25 µM | > 25 µM | > 25 µM | > 25 µM | > 25 µM | > 25 µM | > 25 µM | > 25 µM | > 25 µM | > 17.7 µM | > 25 µM | > 22600 nM | > 25 µM | 14000 nM | > 25000 nM | > 25000 nM | 14200 nM | > 25 µM | 
12 | CC(=O)c1cccc(NC(=O)C(=O)c2c(O)c3ccccc3oc2=O)c1 | > 100 µM | > 100 µM | > 100 µM | > 100 µM | > 100 µM | > 100 µM | > 100 µM | > 100 µM | > 100 µM |  |  |  |  |  |  |  |  |  |  | 
13 | CCOC(=O)c1ccc(NC(=O)NC2=NCCS2)cc1 |  | > 100 µM | > 100 µM | > 100 µM | > 100 µM | 3.3 µM | 2.27 µM | > 100 µM | > 100 µM | 97.9 µM | > 93.5 µM | 3.2 µM | 56100 nM | 1.98 µM | 429 nM | 381 nM | 24600 nM | 973 nM | > 100 µM | 
14 | CC1(C)OC(=S)N(c2ccccc2)C12C=Cc1cc3ccccc3nc1S2 (configuration not stated) | > 100 µM | > 100 µM | > 100 µM |  | > 100 µM | > 100 µM | > 100 µM | 80.1 µM | > 100 µM | > 100 µM |  |  |  |  |  |  |  |  |  | 
15 | O=C(Nc1cccc2[nH]c(C(F)(F)F)nc12)c1cc(Cl)ccc1Cl |  | 14.7 µM | > 100 µM | > 100 µM | 31.6 µM |  | 15.3 µM | 8.96 µM | 36.2 µM | 6.66 µM | 3.62 µM | 3.09 µM | 2590 nM | 3.68 µM |  | 3070 nM | 2790 nM | 3040 nM | 4.17 µM | 
16 | CCOc1cccc2c1N[S@@](=O)S2 | > 100 µM | > 100 µM |  |  |  |  | > 100 µM | > 100 µM | > 100 µM | > 100 µM |  |  |  |  |  |  |  |  |  | 
17 | CC(=O)NC1(NC(C)=O)C2CC(C1Cc1ccccc1)C(C)(C)C2C (configuration not stated) | > 100 µM | > 100 µM | > 100 µM | > 100 µM | > 100 µM | > 100 µM | > 100 µM | > 100 µM | > 100 µM |  |  |  |  |  |  |  |  |  |  | 
18 | Cn1c(=O)n(C)c2cc(CNCCNc3ccnc4cc(Cl)ccc34)ccc21 |  | > 100 µM | 60.8 µM | > 100 µM | > 100 µM | 31.2 µM | 29.4 µM | 48.2 µM | > 100 µM | 52.5 µM | 21.1 µM | 20.9 µM | 26100 nM | 38.2 µM | 12600 nM | 14700 nM | 22600 nM | 16300 nM | 40.2 µM | 
19 | CC(C)(C)NCC(O)COc1c(Br)c(Br)c(Br)c2c1OC(C)(C)C2 (configuration not stated) | 3.02 µM | 2.75 µM | 3.28 µM |  |  | 3.83 µM | 3.18 µM | 3.29 µM | 3.52 µM | 3.23 µM | 1.34 µM | 1.77 µM |  |  | 2140 nM | 1670 nM | 1600 nM | 1660 nM | 2.04 µM | 1610 nM
20 | CCOC(=O)C1Cc2ccc3c4c(ccc(c24)C1)CC(C(=O)OCC)C3 | > 100 µM | > 100 µM |  |  | > 100 µM | > 100 µM | > 100 µM | > 100 µM | > 100 µM | > 100 µM |  |  |  |  |  |  |  |  |  | 
21 | COc1cc(C(=O)N[C@H]2CCc3cc(OC)c(OC)c(OC)c3-c3ccc(SC)c(=O)cc32)cc(OC)c1OC | 25 µM | > 100 µM | 0.0137 µM and 0.0808 µM | 25 µM and > 100 µM | 0.0478 µM |  | 0.0145 µM | 25 µM and > 100 µM | 25 µM and > 100 µM |  |  |  | 28.5 nM |  |  |  | 20 nM |  | 16.1 µM | 
22 | COC(=O)c1cc(=O)nc2cc3cccccc3n12 | > 100 µM | > 100 µM | > 100 µM |  | > 100 µM | > 100 µM | > 100 µM | > 100 µM | > 100 µM |  |  |  |  |  |  |  |  |  |  | 
23 | C1=Cc2nc1c(-c1ccccc1)c1ccc([nH]1)c(-c1ccccc1)c1nc(c(-c3ccccc3)c3ccc([nH]3)c2-c2ccccc2)C=C1 | > 100 µM | > 100 µM | > 100 µM | > 100 µM | > 100 µM |  | > 100 µM | > 100 µM | > 100 µM | > 100 µM |  |  |  |  |  |  |  |  |  | 
24 | COC(=O)C(C(=O)C(=O)Nc1ccc(C)cc1C)c1csc(-n2nc(-c3ccccc3)cc2-c2ccccc2)n1 (configuration not stated) | > 100 µM | > 100 µM | > 100 µM | > 100 µM | > 100 µM | > 100 µM |  | > 100 µM | > 100 µM |  |  |  |  |  |  |  |  |  |  | 
25 | CCSc1ccc([C@@H]2[C@@H](O)C(=O)N2c2cc(OC)c(OC)c(OC)c2)cc1 | 53 µM | 11.5 µM | 11.9 µM | 75.8 µM | 16.8 µM | 52.3 µM |  | 17.4 µM | 84.1 µM | 28.4 µM | < 0.0155 µM | < 0.0138 µM | 67.4 nM | 0.0211 µM | < 10 nM |  | 22.1 nM | < 10 nM | 17.7 µM | 22.6 nM
